Measurements published in patent US4551445A, “Derivatives of arginine vasopressin antagonists” (The Medical College of Ohio, priority 1983, dated 1985).
Starred links: 1 amine or outer side, 2 acyl side, 3 side chain; linkers in the order of their positions; H or OH if unused. Positions of bridges follow the written chain, without caps; N, C: chain ends. Non-standard residues stand in square brackets, D forms with d. Residues, ends and D or L forms follow the SMILES beside them. X1 = O=C(CC1(S[*:2])CCCCC1)[*:1]

What was measured:
[1] = test system: vasopressor response to arginine vasopressin; assay: Antivasopressor: antagonism to the vasopressor response (Dyckes et al.); assay type: in vivo; conditions: for Antivasopressor pA2: Table 1, estimated in vivo pA2; for Antivasopressor Potency ED / AD/VP: Table 2; for Antivasopressor Potency ED: effective dose; for AD/VP: ratio, values fit antivasopressor ED / anti-antidiuretic ED
Method: Antagonism to the vasopressor response was estimated in accordance with Dyckes et al., J. Med. Chem., vol. 17 (1974) at 969. The values are expressed as pA2 values, defined as in Schild et al., Br. J. Pharmacol., vol. 2 (1947) at 189.
(§1) Antagonistic potencies were determined and expressed as "effective doses" and pA2 values. The "effective dose" is defined as the dose (in nanomoles per kilogram) that reduces the response seen from 2x units of agonist injected 20 min after the dose of antagonist to the response with 1x units of agonist. Estimated in vivo "pA2 " values represent the negative logarithms of the effective doses, divided by the estimated volume of distribution (67 ml/kg).

[2] = test system: antidiuretic response to arginine vasopressin (ADH); assay: Anti-antidiuretic: antagonism of the antidiuretic response to subsequent injections of vasopressin; assay type: in vivo, rats; conditions: for Anti-Antidiuretic pA2: estimated in vivo pA2, volume of distribution 67 ml/kg; for Anti-Antidiuretic ED: effective dose
Method: Activity as antidiuretic agonists was determined by intravenous injection of the compounds being evaluated in ethanol-anesthesized water-loaded rats in accordance with Sawyer, Endocrinology, vol. 63 (1958) at 694. Antagonism of the response to subsequent injections of vasopressin was tested as described by Sawyer et al., Science, vol. 212 (1981) at 49.
as §1

Row | Molecule | Antivasopressor pA2 [1] | Anti-Antidiuretic pA2 ([2]; Table 1) | Antivasopressor Potency ED [1] | AD/VP [1] | Anti-Antidiuretic ED ([2]; Table 2) | Anti-Antidiuretic pA2 ([2]; Table 2)
1 | COc1ccc(C[C@H]2NC(=O)CC3(CCCCC3)SSC[C@@H](C(=O)N3CCC[C@H]3C(=O)N[C@@H](CCCNC(=N)N)C(=O)NCC(N)=O)NC(=O)[C@H](CC(N)=O)NC(=O)[C@H](CCC(N)=O)NC(=O)[C@H](Cc3ccccc3)NC2=O)cc1 [d(CH2)5 [D-Tyr(Me)^2]AVP, [1-(β-mercapto-β,β-cyclopentamethylenepropionic acid), 2-D-(O-methyl)tyrosine]-arginine vasopressin] ([dY](Me)FQNCPRG-NH2; linker N-5 via X1) | 8.27 ± 0.02 | 6.98 ± 0.08 |  |  |  | 
2 | CCOc1ccc(C[C@H]2NC(=O)CC3(CCCCC3)SSC[C@@H](C(=O)N3CCC[C@H]3C(=O)N[C@@H](CCCNC(=N)N)C(=O)NCC(N)=O)NC(=O)[C@H](CC(N)=O)NC(=O)[C@H](C(C)C)NC(=O)[C@H](Cc3ccccc3)NC2=O)cc1 [d(CH2)5 --D-Tyr(Et)VAVP] ([dY](Et)FVNCPRG-NH2; linker N-5 via X1) | 8.22 ± 0.12 | 7.81 ± 0.07 |  |  |  | 
3 | COc1ccc(C[C@@H]2NC(=O)CC3(CCCCC3)SSC[C@@H](C(=O)N3CCC[C@H]3C(=O)N[C@H](CCCNC(=N)N)C(=O)NCC(N)=O)NC(=O)[C@H](CC(N)=O)NC(=O)[C@H](C(C)C)NC(=O)[C@H](Cc3ccccc3)NC2=O)cc1 [d(CH2)5 Tyr(Me)VDAVP, [1-(β-mercapto-β,β-cyclopentamethylenepropionic acid), 2-O-methyltyrosine, 4-valine, 8-D-arginine]vasopressin] (Y(Me)FVNCP[dR]G-NH2; linker N-5 via X1) | 8.44 ± 0.07 | 6.68 ± 0.11 |  |  |  | 
4 | [1-(β-mercapto-β,β-cyclopentamethylenepropionic acid), 2-D-phenylalanine, 4-leucine, 7-hydroxyproline]-arginine vasopressin [d(CH2)5 D-Phe^2 Ile^4 Hy-Pro^7 AVP] |  |  | 0.9 ± 0.2 nmol/kg | 0.7 | 1.3 ± 0.3 nmol/kg | 7.74
5 | CCOc1ccc(C[C@@H]2NC(=O)CC3(CCCCC3)SSC[C@@H](C(=O)N3CCC[C@H]3C(=O)N[C@H](CCCNC(=N)N)C(=O)NCC(N)=O)NC(=O)[C@H](CC(N)=O)NC(=O)[C@H](C(C)C)NC(=O)[C@H](Cc3ccccc3)NC2=O)cc1 [d(CH2)5 Tyr(Et)VDAVP] (Y(Et)FVNCP[dR]G-NH2; linker N-5 via X1) | 8.31 ± 0.05 | 7.10 ± 0.08 |  |  |  | 
6 | [1-(β-mercapto-β,β-cyclopentamethylenepropionic acid), 2-D-phenylalanine, 4-aminobutyric acid]-arginine vasopressin [d(CH 2)5 D-Phe^2 Abu^4 AVP] |  |  | 1.4 ± 0.3 nmol/kg | 1.8 | 0.77 ± 0.12 nmol/kg | 7.96
7 | CCOc1ccc(C[C@@H]2NC(=O)CC3(CCCCC3)SSC[C@@H](C(=O)N3CCC[C@@H]3C(=O)N[C@@H](CCCNC(=N)N)C(=O)NCC(N)=O)NC(=O)[C@H](CC(N)=O)NC(=O)[C@H](C(C)C)NC(=O)[C@H](Cc3ccccc3)NC2=O)cc1 [d(CH2)5 Tyr(Et)^2 D-Pro^7 VAVP] (Y(Et)FVNC[dP]RG-NH2; linker N-5 via X1) | 8.23 ± 0.13 | 6.32 ± 0.11 |  |  |  | 
8 | CCOc1ccc(C[C@H]2NC(=O)CC3(CCCCC3)SSC[C@@H](C(=O)N3CCC[C@@H]3C(=O)N[C@@H](CCCNC(=N)N)C(=O)NCC(N)=O)NC(=O)[C@H](CC(N)=O)NC(=O)[C@H](C(C)C)NC(=O)[C@H](Cc3ccccc3)NC2=O)cc1 [d(CH2)5 D-Tyr(Et)^2 D-Pro^7 VAVP] ([dY](Et)FVNC[dP]RG-NH2; linker N-5 via X1) | 8.10 ± 0.06 | 7.64 ± 0.08 |  |  |  | 
9 | COc1ccc(C[C@@H]2NC(=O)CC3(CCCCC3)SSC[C@H](C(=O)N3CCC[C@H]3C(=O)N[C@@H](CCCNC(=N)N)C(=O)NCC(N)=O)NC(=O)[C@H](CC(N)=O)NC(=O)[C@H](CCC(N)=O)NC(=O)[C@H](Cc3ccccc3)NC2=O)cc1 [d(CH2)5 Tyr(Me)^2 D-Cys^6 AVP] (Y(Me)FQN[dC]PRG-NH2; linker N-5 via X1) | 7.87 ± 0.09 | 5.5 |  |  |  | 
